Laboratory results taken from patent US10314811B2, “Compositions and methods for selectively inhibiting intestinal carboxylesterase 2 enzyme activity” (The Methodist Hospital, priority 2015, dated 2019).
Like-named read-outs stand apart in the source and are kept apart here.

Experiments:
[1] = test system: CT 26 tumor bearing Balb/cJ mice; assay: In vivo testing of anti-diarrheal activity with CPT-11 in tumor bearing mice (Example 3); conditions: for anti-tumor efficacy, as evaluated by tumor growth, versus CPT-11 only group / losses in body weight induced by CPT-11 treatment / survival rates as compared to CPT-11 alone: 40 mg/kg orally with CPT-11 50 mg/kg i.p.; for anti-tumor efficacy, as evaluated by tumor growth, versus CPT-11 only group: FIG. 1A; for losses in body weight induced by CPT-11 treatment: FIG. 1B at 14-16 days of treatment; for survival rates as compared to CPT-11 alone: FIG. 1C; for day on which diarrhea occurred: CPT-11 50 mg/kg i.p., CES2 inhibitor (if any) 40 mg/kg orally; for Percentage of mice having diarrhea: CPT-11 50 mg/kg i.p. day 1-10, CES2 inhibitor (if any) 40 mg/kg orally day 0-11
Method: CPT-11 was purchased from Selleck Chemicals. To obtain an injectable formulation, CPT-11 (20 mg/mL) was dissolved in a solution containing D sorbitol (45 mg/mL) and D lactic acid (0.9 mg/mL) in ddH2O, and heated to ˜70° C. to 90° C. for 5 to 10 min See Trifan et al. 2002, Cancer Res., 62(20):5778 5784. The pH of the solution was adjusted to 3.5 prior to sterile filtration. The solution was stored protected from light until just prior to administration.
Each of these compounds was dissolved separately in 100% DMSO and then diluted into a 0.5% carboxymethylcellulose solution. The final concentration of DMSO was less than 1%.
(§1) Healthy 6-8 week old female Balb/cJ mice were obtained from Jackson Laboratories (Bar Harbor, Me. USA). CT 26 tumor cells, derived from a murine Balb/c colon adenocarcinoma, were used to form tumors by subcutaneous injection of tumor cells into the posterior mid-dorsum of the mice. When tumors reached ˜500 mm^3 (˜10 days after implantation, defined as day 1), treatment was initiated. The mice were divided into five groups of 3-4 animals each and treated as follows:
(1) Vehicle group, mice received an equivalent volume of CPT-11 vehicle i.p. from day 1 to day 10, and an equivalent volume of compound vehicle orally from day 0 to day 11;
(2) CPT-11 only group, mice received CPT-11 (50 mg/kg) i.p. from day 1 to day 10, and an equivalent volume of compound vehicle orally from day 0 to day 11;
CPT-11 and the CES2 inhibitors were each administrated once per day during the experiment.
The CES2 inhibitor treatment groups were compared to the CPT-11 only group and to the vehicle control group. Four major parameters were examined to quantify the effect of CES2 inhibitors, namely, body weight change, presence of diarrhea, survival time, and average tumor size.

[2] = target: T1, recombinant purified intestinal CES2 (Homo sapiens, UniProt O00748); assay: CES2 enzyme assay (4-nitrophenyl acetate hydrolysis); format: biochemical
T1 construct: purchased Sigma Aldrich E0412
T1 sequence (O00748 27-559): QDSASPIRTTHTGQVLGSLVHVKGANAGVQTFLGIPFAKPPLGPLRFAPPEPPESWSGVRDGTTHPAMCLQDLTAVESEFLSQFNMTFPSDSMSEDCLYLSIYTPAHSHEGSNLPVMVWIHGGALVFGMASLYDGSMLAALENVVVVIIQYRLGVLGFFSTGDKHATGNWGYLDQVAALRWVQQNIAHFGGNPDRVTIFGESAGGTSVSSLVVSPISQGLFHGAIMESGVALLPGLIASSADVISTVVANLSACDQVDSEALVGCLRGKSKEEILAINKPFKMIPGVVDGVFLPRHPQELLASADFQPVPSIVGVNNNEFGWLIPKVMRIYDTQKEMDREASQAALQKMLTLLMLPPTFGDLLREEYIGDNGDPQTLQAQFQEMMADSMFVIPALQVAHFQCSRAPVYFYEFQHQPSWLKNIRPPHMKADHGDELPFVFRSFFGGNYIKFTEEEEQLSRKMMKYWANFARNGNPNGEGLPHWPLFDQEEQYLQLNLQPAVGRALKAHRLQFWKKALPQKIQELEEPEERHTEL
Method: CES2 and CES1 enzyme assays were used for primary screening and IC50 determination of potential inhibitors. […] The esterase substrate, 4 nitrophenyl acetate (4 NPA), was used to detect enzyme activity. The recombinant purified intestinal CES2 and human liver CES1 enzymes and 4 NPA were purchased from Sigma Aldrich (product ID E0412, E0162, and N8130, respectively). […] The assays were conducted in a total volume of 300 μL in 96 well microtiter plates. Reaction mixtures consisted of the following: 100 μL 50 mM HEPES with 10 units of enzyme, 10 μL compound solution (various concentrations), 2 μL 300 mM 4 NPA and 188 μL 50 mM HEPES, pH 7.4. The test compound and 4 NPA solution were added to the wells first and then the reaction was initiated by the addition of enzyme solution. After incubation for 15 min. at 25° C., absorbance at 405 nm was measured using a microplate reader.

[3] = target: T2, human liver CES1 (Homo sapiens, UniProt P23141); assay: CES1 enzyme assay (4-nitrophenyl acetate hydrolysis); format: biochemical; conditions: for inhibition of CES1: concentrations as high as 300 μM
T2 construct: purchased Sigma Aldrich E0162
T2 sequence (P23141 18-567): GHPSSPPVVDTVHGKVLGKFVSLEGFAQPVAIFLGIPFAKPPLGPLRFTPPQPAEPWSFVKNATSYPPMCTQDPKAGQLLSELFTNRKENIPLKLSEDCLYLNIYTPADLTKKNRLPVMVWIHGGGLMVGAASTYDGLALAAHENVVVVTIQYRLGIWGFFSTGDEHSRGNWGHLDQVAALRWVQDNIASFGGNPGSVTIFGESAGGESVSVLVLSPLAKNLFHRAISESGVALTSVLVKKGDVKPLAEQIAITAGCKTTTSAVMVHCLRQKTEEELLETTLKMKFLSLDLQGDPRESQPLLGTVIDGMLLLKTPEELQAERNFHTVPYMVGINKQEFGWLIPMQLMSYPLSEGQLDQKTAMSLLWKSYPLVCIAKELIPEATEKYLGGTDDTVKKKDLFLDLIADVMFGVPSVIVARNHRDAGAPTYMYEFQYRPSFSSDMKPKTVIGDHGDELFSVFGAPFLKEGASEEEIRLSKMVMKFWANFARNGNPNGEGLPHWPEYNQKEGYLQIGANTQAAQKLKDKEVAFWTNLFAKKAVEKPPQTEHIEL
Source text: CES2 and CES1 enzyme assays were used for primary screening and IC50 determination of potential inhibitors. The assays are well established and widely used in compound discovery and lead optimization for CES inhibitors. See, e.g., Wadkins et al. 2004, Mol. Pharmacol. 65(6):1336 1343; Wadkins et al. 2005, J. Med. Chem. 48(8):2906 2915; Hicks et al. 2009, J. Med. Chem. 52(12):3742 3752; Hyatt et al. 2007, J. Med. Chem. 50(8):1876 1885; Hicks et al. 2007, Bioorg. Med. Chem. 15(11):3801 3817; Hyatt et al. 2007, J. Med. Chem., 50(23):5727 5734; Wadkins et al. 2007, Mol. Pharmacol. 71(3):713 723; and Young et al. 2010, J. Med. Chem., 53(24):8709 8715. CES converts esters into the corresponding alcohol and carboxylic acid. The esterase substrate, 4 nitrophenyl acetate (4 NPA), was used to detect enzyme activity. The recombinant purified intestinal CES2 and human liver CES1 enzymes and 4 NPA were purchased from Sigma Aldrich (product ID E0412, E0162, and N8130, respectively). […] The assays were conducted in a total volume of 300 μL in 96 well microtiter plates. Reaction mixtures consisted of the following: 100 μL 50 mM HEPES with 10 units of enzyme, 10 μL compound solution (various concentrations), 2 μL 300 mM 4 NPA and 188 μL 50 mM HEPES, pH 7.4. The test compound and 4 NPA solution were added to the wells first and then the reaction was initiated by the addition of enzyme solution. After incubation for 15 min. at 25° C., absorbance at 405 nm was measured using a microplate reader.

[4] = test system: CT 26 tumor bearing Balb/cJ mice; assay: In vivo efficacy of CPT-11 plus hesperetin at different doses (Example 4); conditions: for Percentage of mice having diarrhea: CPT-11 alone
Source text: as §1

[5] = 4 NPA substrate, 15 min at 25° C., pH 7.4, read-out: IC50 CES1 Assay
[6] = both hesperetin doses (20 mg/kg and 100 mg/kg) with CPT-11

Structure (SMILES): O=C(/C=C/c1ccccc1)c1ccc(O)cc1O [2′,4′ dihydroxychalcone, 2′,4′-dihydroxychalcone]
- anti-tumor efficacy, as evaluated by tumor growth, versus CPT-11 only group [1]: No significant changes
- losses in body weight induced by CPT-11 treatment [1]: reversed
- survival rates as compared to CPT-11 alone [1]: improved
- day on which diarrhea occurred [1]: 13 days
- Percentage of mice having diarrhea ([1]; day 12 after treatment): no mice
- Selectivity (IC50 CES1)/(IC50 CES2) [2]: >180
- IC50 ([2]; 4 NPA substrate, 15 min at 25° C., pH 7.4): 1.66 µM
- IC50 [3, 5]: > 300 µM
- inhibition of CES1 [3]: No significant inhibition

Structure (SMILES): CCc1c2c(nc3ccc(OC(=O)N4CCC(N5CCCCC5)CC4)cc13)-c1cc3c(c(=O)n1C2)COC(=O)[C@]3(O)CC [CPT-11, irinotecan]
- Percentage of mice having diarrhea ([4]; day 8 after treatment): 10%
- Percentage of mice having diarrhea ([4]; day 9 after treatment): 20%
- Percentage of mice having diarrhea ([4]; day 10 after treatment): 40%
- Percentage of mice having diarrhea ([4]; day 11 after treatment): 70%
- Percentage of mice having diarrhea ([4]; day 12 after treatment): 70%
- day on which diarrhea occurred [1]: 9 days
- Percentage of mice having diarrhea ([1]; day 9 after treatment): 50%
- Percentage of mice having diarrhea ([1]; day 10 after treatment): 50%
- Percentage of mice having diarrhea ([1]; day 11 after treatment): 75%
- Percentage of mice having diarrhea ([1]; day 12 after treatment): 75%
- Percentage of mice having diarrhea ([1]; day 13 after treatment): 75%
- Percentage of mice having diarrhea ([1]; day 14 after treatment): 75%

Structure (SMILES): COc1ccc([C@@H]2CC(=O)c3c(O)cc(O)cc3O2)cc1O [hesperetin]
- number of animals exhibiting diarrhea as compared to CPT-11 alone [4, 6]: reduced
- onset of diarrhea as compared to CPT-11 alone [4, 6]: significantly delayed
- survival of animals as compared to CPT-11 alone ([4]; co-administering hesperetin and CPT-11, both hesperetin doses, FIG. 2C): improved
- loss in body weight induced by CPT-11 administration ([4]; co-administration of hesperetin at both doses tested, FIG. 2B): reduced
- anti-tumor efficacy of CPT-11 on co-administration ([4]; either dose of hesperetin (20 mg/kg or 100 mg/kg)): improved
- day of onset of diarrhea ([4]; hesperetin 20 mg/kg with CPT-11): 10 days
- day of onset of diarrhea ([4]; hesperetin 100 mg/kg with CPT-11): 12 days
- anti-tumor efficacy, as evaluated by tumor growth, versus CPT-11 only group [1]: No significant changes
- losses in body weight induced by CPT-11 treatment [1]: reversed
- survival rates as compared to CPT-11 alone [1]: improved
- day on which diarrhea occurred [1]: 12 days
- Percentage of mice having diarrhea ([1]; day 12 after treatment): 25%
- IC50 [3]: > 300 µM
- inhibition of CES1 [3]: No significant inhibition

Structure (SMILES): O=C1C[C@@H](c2ccc(O)cc2)Oc2cc(O)cc(O)c21 [naringenin]
- anti-tumor efficacy, as evaluated by tumor growth, versus CPT-11 only group [1]: No significant changes
- IC50 [3, 5]: 159 µM
